According to the NIST ThermoML archive (doi:10.1021/je4003515):

How the values were obtained:
[1] = refractive index (Na D-line) (dimensionless); mn = molality of the nth substance listed, in mol/kg; details: 298.15 K, 101 kPa, Liquid, Standard Abbe refractometry
[2] = mn = molality of the nth substance listed, in mol/kg; details: 101 kPa, Liquid; for viscosity: Capillary tube (Ostwald / Ubbelohde) method; for mass density: Vibrating tube method

CCO [ethanol] + O
[1]
Details	refractive index
m1 = 14	1.355
m1 = 16	1.3564
m1 = 18	1.3575
m1 = 20	1.3583
m1 = 22	1.3585

[2]
Details	mass density, 293.15 K [kg/m3]	mass density, 298.15 K [kg/m3]	mass density, 303.15 K [kg/m3]	mass density, 308.15 K [kg/m3]	mass density, 313.15 K [kg/m3]	viscosity, 293.15 K [mPa·s]	viscosity, 298.15 K [mPa·s]	viscosity, 303.15 K [mPa·s]	viscosity, 308.15 K [mPa·s]	viscosity, 313.15 K [mPa·s]
m1 = 14	936.706	933.024	929.265	925.437	921.529	2.895	2.35	1.97	1.673	1.44
m1 = 16	930.583	926.799	922.942	919.015	915.018	2.9	2.363	1.988	1.69	1.456
m1 = 18	924.182	920.298	916.351	912.337	908.255	2.889	2.365	1.99	1.695	1.462
m1 = 20	918.792	914.849	910.842	906.77	–	2.878	2.371	1.999	1.704	1.475
m1 = 22	913.462	909.466	905.406	901.281	–	2.862	2.352	1.989	1.7	1.469

CCCO [propan-1-ol] + O
[1]
Details	refractive index
m1 = 14	1.364
m1 = 16	1.3654
m1 = 18	1.367
m1 = 20	1.368
m1 = 22	1.3695

[2]
Details	mass density, 293.15 K [kg/m3]	mass density, 298.15 K [kg/m3]	mass density, 303.15 K [kg/m3]	mass density, 308.15 K [kg/m3]	mass density, 313.15 K [kg/m3]	viscosity, 293.15 K [mPa·s]	viscosity, 298.15 K [mPa·s]	viscosity, 303.15 K [mPa·s]	viscosity, 308.15 K [mPa·s]	viscosity, 313.15 K [mPa·s]
m1 = 14	918.103	914.486	910.811	907.075	903.277	3.11	2.599	2.193	1.88	1.626
m1 = 16	911.211	907.532	903.797	899.995	896.13	3.151	2.637	2.23	1.906	1.648
m1 = 18	905.417	901.687	897.899	894.048	890.133	3.176	2.663	2.255	1.93	1.67
m1 = 20	899.512	895.724	891.885	887.984	884.02	3.178	2.671	2.263	1.938	1.679
m1 = 22	895.376	891.557	887.682	883.751	879.756	–	–	–	–	–
